Reference: article PMC11456916, “A screen for cell envelope stress uncovers an inhibitor of prolipoprotein diacylglyceryl transferase, Lgt, in Escherichiacoli” (iScience, 2024)
In brackets after ≈: the same amount, converted by molar mass. Where two headings read alike, the source gives them in different places.

Legend:
E. coli ΔtolC-pore = assay: MIC assay, E. coli ΔtolC-pore; type: cell-based; conditions: LB, 18 h
Protocol: (§1) For MIC assays, cultures of bacteria were grown in LB broth. Overnight cultures were diluted (1:100) into fresh LB media and grown to the mid-log phase of growth (OD600 ∼0.5). Subcultures were then normalized to an OD600 of 0.1, and diluted (1:5000) into assay media. Assay plates were then incubated for 18 h at 37°C, then OD600 was measured using a Biotek Neo plate reader.

[1] = molecular target: T1, prolipoprotein diacylglyceryl transferase, Lgt (Escherichia coli, UniProt P60955); assay: In vitro Lgt biochemical assay (phosphatidylglycerol and Pal-IAAC peptide substrates); design: species or system E. coli
T1 construct: Expression, purification, and in vitro Lgt biochemical assay were conducted as described by Diao et al; made in house
T1 sequence (P60955 whole entry): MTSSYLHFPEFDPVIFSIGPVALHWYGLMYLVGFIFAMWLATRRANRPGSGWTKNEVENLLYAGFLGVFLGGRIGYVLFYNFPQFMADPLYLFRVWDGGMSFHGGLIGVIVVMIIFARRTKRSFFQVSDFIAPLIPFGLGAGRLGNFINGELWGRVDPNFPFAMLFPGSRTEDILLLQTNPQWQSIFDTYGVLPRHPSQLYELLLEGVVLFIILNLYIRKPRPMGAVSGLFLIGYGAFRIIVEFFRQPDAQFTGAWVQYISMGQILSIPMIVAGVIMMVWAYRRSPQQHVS
Text: With both genetic and phenotypic evidence supporting MAC-0452936 inhibiting Lgt in E. coli, we next investigated whether MAC-0452936 could inhibit Lgt activity in vitro. Recently, a biochemical assay for Lgt activity was developed using phosphatidylglycerol and Pal-IAAC peptide as substrates.[12] […] As similar results were obtained using two different Lgt enzyme preparations, the inhibition observed by MAC-0452936 was not dependent on the preparation of the lipid matrix. Together, we present genetic, phenotypic, and biochemical evidence that MAC-0452936 inhibits the growth of E. coli through inhibition of Lgt. MAC-0452936 represents a previously undiscovered small molecule inhibitor of bacterial Lgt, and the oxime ester represents a promising chemical scaffold for antibiotic discovery.
Expression, purification, and in vitro Lgt biochemical assay were conducted as described by Diao et al.[12]

E. coli BW25113 = assay: MIC assay, wild-type E. coli with or without SPR741; type: cell-based; conditions: for reduction in potency relative to MAC-0452936 (1): MIC against E. coli with SPR741
Protocol: We next sought to determine whether we could achieve growth inhibition of wild-type E. coli using MAC-0452936 and an antibiotic adjuvant. […] To that end, we determined the MIC of MAC-0452936 against wild-type E. coli in the presence and absence of a sub-MIC concentration of SPR741 (Figure S8B). […] We leveraged this combination to characterize the spectrum of activity of MAC-0452936 against a panel of Gram-negative pathogens (Table 2). In the presence of 8 μg/mL SPR741, we observed MAC-0452936 activity against the clinical E. coli isolates C0244 and CFT073 at 2 μg/mL as well as against Salmonella Typhimurium SL1344 at 4 μg/mL.
as §1

[2] = Lgt purified using DDM lipid matrix, read-out: in vitro Lgt inhibition DDM-Lgt IC50
[3] = Lgt purified using amphipol lipid matrix, read-out: in vitro Lgt inhibition Amph-Lgt IC50

SMILES	MIC, E. coli ΔtolC-pore (E. coli ΔtolC-pore) [µg/mL]	IC50 [1, 2] [µM]	IC50 [1, 3] [µM]	MIC, E. coli BW25113 (WT) + 8 μg/mL SPR741 (E. coli BW25113) [µg/mL]	reduction in potency relative to MAC-0452936 (1) (E. coli BW25113) [fold]	activity against E. coli with SPR741 (E. coli BW25113; in words)
COc1ccc(C(=O)O/N=C(\c2cccs2)C(C)(C)C)c(F)c1 [compound 2, (Z)-2-Pivaloylthiophene O-(2-fluoro-4-methoxybenzoyl) oxime]	0.5 (≈ 1.49 µM)	0.77	0.32			
COc1ccc(CC(=O)O/N=C(\c2cccs2)C(C)(C)C)cc1 [compound 16, (Z)-2-Pivaloylthiophene O-(2-(4-methoxyphenyl)acetyl) oxime]				4	8	
COc1ccc(C(=O)O/N=C(\c2cccs2)C(C)(C)C)cc1N [compound 6, (Z)-2-Pivaloylthiophene O-(3-amino-4-methoxybenzoyl) oxime]	32 (≈ 96.3 µM)	57.3	95.5	8		
Cn1cncc1C(=O)O/N=C(\c1cccs1)C(C)(C)C [compound 5, (Z)-2-Pivaloylthiophene O-(1-methyl-1H-imidazol-5-oyl) oxime]	4 (≈ 13.7 µM)	7.78	5.91	4		
COc1ccc(C(=O)O/N=C(\c2cccnc2)C(C)(C)C)cc1 [compound 22, (Z)-3-Pivaloylpyridine O-(4-methoxybenzoyl) oxime]					≥ 32	
CC(C)(C)/C(=N/OC(=O)c1cncs1)c1cccs1 [compound 4, (Z)-2-Pivaloylthiophene O-(thiazol-5-ylcarbonyl) oxime]	2 (≈ 6.79 µM)	7.68	4.92	2		
COc1ccc(C(=O)O/N=C(\c2cncs2)C(C)(C)C)cc1 [compound 20, (Z)-5-Pivaloylthiazole O-(4-methoxybenzoyl) oxime]					≥ 32	
COc1cc(OC)cc(C(=O)O/N=C(\c2cccs2)C(C)(C)C)c1 [compound 7, (Z)-2-Pivaloylthiophene O-(3,5-dimethoxybenzoyl) oxime]	> 32	58.7	175	4		
CC(C)(C)C(=NOS(N)(=O)=O)c1cccs1 [compound 17, 2-Pivaloylthiophene O-(sulfamoyl) oxime]						inactive
CC(C)(C)/C(=N/OC(=O)c1cccnc1)c1cccs1 [compound 3, (Z)-2-Pivaloylthiophene O-(pyridine-3-oyl) oxime]	1 (≈ 3.47 µM)	3.54	2.72			
